Experimental data: patent publication US4046904A, “Novel penicillin, and its preparation and use” (Sumitomo Chemical Company, Limited, priority 1975, dated 1977)
Values after ≈ are worked out from the molar mass of the structure shown.

What was measured:
[1] = system: Pseudomonas; conditions: background statement; cited from earlier work
[2] = system: Staphylococcus aureus; experiment: Intraperitoneal infection in mice, median protective dose (Table 5); assay type: in vivo; conditions: sc, S. aureus strain A24, male ICR-SLC mice, subcutaneous, 1, 3 and 5 hours after infection, sodium salt, read-out: PD50
Procedure: (§1) The relative activities of Compound (I) and Compound (C) against various intraperitioneal infections in mice evaluated by the minimum inhibitory concentrations and the means median protective doses (subcutaneously administered) are shown in Table 5.
(§2) Note: Compound (I) and Compound (C) were subjected to the test in the form of the sodium salt. For each test, five male ICR-SLC strain mice were used at each dose level. MIC was determined by the nutrient broth dilution method. In determination of PD50, subsutaneous treatment was carried out three times, i.e. 1, 3 and 5 hours after infection.

[3] = system: Pseudomonas aeruginosa; experiment: as above; assay type: in vivo; conditions: sc, P. aeruginosa strain TS, male ICR-SLC mice, subcutaneous, 1, 3 and 5 hours after infection, sodium salt, read-out: PD50
Procedure: as §1, §2

[4] = system: Streptococcus faecalis; experiment: as above; assay type: in vivo; conditions: Enterococcus faecalis, sc; S. faecalis strain F10; male ICR-SLC mice; subcutaneous, 1, 3 and 5 hours after infection; sodium salt; read-out: PD50
Procedure: as §1, §2

[5] = system: Klebsiella pneumoniae; experiment: as above; assay type: in vivo; conditions: sc, K. pneumoniae strain No. 1, male ICR-SLC mice, subcutaneous, 1, 3 and 5 hours after infection, sodium salt, read-out: PD50
Procedure: as §1, §2

[6] = system: Staphylococcus aureus; experiment: Median MIC, clinical isolates, agar-plate dilution (Table 4); assay type: cell-based; conditions: 37 strains, agar-plate dilution, sodium salt, read-out: Median minimum inhibitory concentration
Procedure: (§3) Note: Compound (I) and Compound (C) were subjected to the test in the form of the sodium salt. MIC was determined using the agar-plate dilution method.

[7] = system: Streptococcus faecalis; experiment: as above; assay type: cell-based; conditions: Enterococcus faecalis, 23 strains, agar-plate dilution, sodium salt, read-out: Median minimum inhibitory concentration
Procedure: as §3

[8] = Serum level in mice after subcutaneous administration (Table 7); assay type: in vivo, ICR-SLC strain mice; conditions: mouse, sc, subcutaneous 50 mg/kg, sodium salt
Procedure: The peak serum concentrations of Compound (I) and Compound (C) in ICR strain mice following subcutaneous administration at 50 mg/kg are shown in Table 7.
Note: Compound (I) and Compound (C) were subjected to the test in the form of the sodium salt. For the test, three male ICR-SLC strain mice were used. The bioassay was carried out according to the disc method using Bacillus subtilis.

[9] = Acute toxicity in mice, intraperitoneal (Table 9); conditions: mouse, in vivo, ip
Description: The acute toxicity of Compound (I) and Compound (C) in ICR strain mice when administered by intraperitoneal route are shown in Table 9.
(§4) Note: Compound (I) and Compound (C) were subjected to the test in the form of the sodium salt.

[10] = Urinary excretion rate in rats after intramuscular administration (Table 8); assay type: in vivo, Wistar-HLA strain rats; conditions: rat, urine, im, 20 mg/kg, male rats, intramuscular 20 mg/kg, sodium salt
Procedure: The urinary excretion rates of Compound (I) and Compound (C) following an intramuscular administration of 20 mg/kg in male Wistar-HLA strain rats are shown in Table 8.
as §4

[11] = Protein-binding rate in human serum (Table 6); assay type: in vitro ADME; conditions: human, serum, sodium salt
Description: The following data are related to the pharmacokinetic profiles of Compound (I) compared with Compound (C).
as §4

[12] = system: Pseudomonas aeruginosa; experiment: MIC, nutrient broth dilution (Table 5); assay type: cell-based; conditions: Pseudomonas aeruginosa strain TS, sodium salt
Procedure: as §1, §2

[13] = system: Streptococcus faecalis; experiment: MIC, nutrient broth dilution (Table 5); assay type: cell-based; conditions: Enterococcus faecalis, Streptococcus faecalis strain F10, sodium salt
Procedure: as §1, §2

[14] = system: Proteus mirabilis; experiment: MIC (Table 3); assay type: cell-based; conditions: Proteus mirabilis strain GN2425; sodium salt
Description: The minimum inhibitory concentrations obtained with Compound (I) and Compound (C) against the following organisms representing 6 genera are shown in Table 3.
as §4

[15] = system: Pseudomonas aeruginosa; experiment: MIC, nutrient broth dilution (Table 2); assay type: cell-based
Procedure: (§5) Note: Compound (I), Compound (A) and Compound (B) were subjected to the test in the form of the sodium salt. For each test, eight male ICR-SLC strain mice were used at each dose level. MIC was determined by the nutrient broth dilution method. In determination of PD50, subcutaneous treatment was carried out twice, i.e. 1 and 4 hours after infection.

[16] = system: Klebsiella pneumoniae; experiment: MIC, nutrient broth dilution (Table 2); assay type: cell-based; conditions: Klebsiella pneumoniae strain No. 6, sodium salt
Procedure: as §5

[17] = system: Escherichia coli; experiment: MIC, nutrient broth dilution (Table 2); assay type: cell-based; conditions: Escherichia coli strain NIHJ, sodium salt
Procedure: as §5

[18] = system: Staphylococcus aureus; experiment: Median MIC, clinical isolates, agar-plate dilution (Table 1); assay type: cell-based; conditions: 37 clinical isolates, sodium salt, read-out: Median minimum inhibitory concentration
Procedure: (§6) Note: Compound (I) and Compound (A) were subjected to the test in the form of the sodium salt. The minimum inhibitory concentration (MIC) was determined using the agar-plate dilution method recommended by Japan Society of Chemotherapy.

[19] = system: Proteus morganii; experiment: as above; assay type: cell-based; conditions: Morganella morganii, 14 clinical isolates, sodium salt, read-out: Median minimum inhibitory concentration
Procedure: as §6

[20] = system: Proteus vulgaris; experiment: as above; assay type: cell-based; conditions: 7 clinical isolates, sodium salt, read-out: Median minimum inhibitory concentration
Procedure: as §6

[21] = system: Serratia; experiment: as above; assay type: cell-based; conditions: 6 clinical isolates, sodium salt, read-out: Median minimum inhibitory concentration
Procedure: as §6

[22] = system: Pseudomonas aeruginosa; experiment: as above; assay type: cell-based; conditions: 49 clinical isolates, sodium salt, read-out: Median minimum inhibitory concentration
Procedure: as §6

[23] = system: Klebsiella pneumoniae; experiment: as above; assay type: cell-based; conditions: 26 clinical isolates, sodium salt, read-out: Median minimum inhibitory concentration
Procedure: as §6

[24] = system: Enterobacter aerogenes; experiment: as above; assay type: cell-based; conditions: Klebsiella aerogenes, 8 clinical isolates, sodium salt, read-out: Median minimum inhibitory concentration
Procedure: as §6

[25] = system: Escherichia; experiment: as above; assay type: cell-based; conditions: read-out: Median minimum inhibitory concentration
Procedure: as §6

[26] = system: Pseudomonas aeruginosa; experiment: Intraperitoneal infection in mice, median protective dose (Table 2); assay type: in vivo; conditions: sc, subcutaneous, 1 and 4 hours after infection, sodium salt, read-out: PD50
Procedure: as §5

[27] = system: Klebsiella pneumoniae; experiment: as above; assay type: in vivo; conditions: sc, subcutaneous, 1 and 4 hours after infection, sodium salt, read-out: PD50
Procedure: as §5

[28] = system: Escherichia coli; experiment: as above; assay type: in vivo; conditions: sc, E. coli strain NIHJ, male ICR-SLC mice, subcutaneous, 1 and 4 hours after infection, sodium salt, read-out: PD50
Procedure: as §5

For `CC1(C)S[C@@H]2[C@H](NC(=O)[C@H](N)c3ccccc3)C(=O)N2[C@H]1C(=O)O` [Ampicillin], the anti-Pseudomonas activity [1] is given as “does not exert any appreciable anti-Pseudomonas activity”.
For `CC1(C)S[C@@H]2[C@H](NC(=O)C(c3ccccc3)S(=O)(=O)O)C(=O)N2[C@H]1C(=O)O` (stereo partly shown) [Sulfocillin], the anti-Pseudomonas activity [1] is listed as “not sufficiently strong”.
In the case of `CC1(C)S[C@@H]2[C@H](NC(=O)[C@H](NC(=O)c3cnc4cccnc4c3O)c3ccc(O)cc3)C(=O)N2[C@H]1C(=O)O` [Compound (C), 6-[D-2-(4-hydroxy-1,5-naphthyridine-3-carbonamido)-2-(p-hydroxyphenyl)acetamido]penicillanic acid, reference compound], the ED50 [2] is reported as 32 mg/kg, the ED50 [3] is reported as 15 mg/kg and the ED50 [4] is reported as 6 mg/kg. The ED50 [5] was 18 mg/kg, the MIC50 [6] was 60 µg/mL and the MIC50 [7] was 3.8 µg/mL. For the same molecule, the concentration at 0.5 h ([8]; 1/2 hr.) was 32000 ng/mL, the concentration at 0.25 h ([8]; 1/4 hr.) was 44000 ng/mL and the concentration at 1 h ([8]; 1 hr.) was 8000 ng/mL. For the same molecule, the concentration at 2 h ([8]; 2 hr.) was 5000 ng/mL, the LD50 [9] was 3100 mg/kg and the dose excreted at 6 h ([10]; 0-6 hr.) was 19.5%. For the same molecule, the dose excreted at 24 h ([10]; 0-24 hr.) was 20%, the dose excreted at 24 h ([10]; 6-24 hr.) was 0.5% and the fraction unbound ([11]; Ultracentrifugation method) was 0.08. For the same molecule, the fraction unbound ([11]; Ultrafiltration method) was 0.1, the MIC [12] was 3.13 µg/mL and the MIC [13] was 1.56 µg/mL. It also gave an MIC [14] of 1.56 µg/mL.
In the case of `CC1(C)S[C@@H]2[C@H](NC(=O)C(C(=O)O)c3ccccc3)C(=O)N2[C@H]1C(=O)O` (stereo partly shown) [Carbenicillin], the anti-Pseudomonas activity [1] is listed as “not sufficiently strong”.
In the case of `CC1(C)S[C@@H]2[C@H](NC(=O)[C@H](NC(=O)c3cnccc3O)c3ccc(O)cc3)C(=O)N2[C@H]1C(=O)O` [Compound (A), 6-[D-2-(4-hydroxypyridine-3-carbonamido)-2-(p-hydroxyphenyl)acetamido]penicillanic acid, reference compound], the MIC ([15]; Pseudomonas aeruginosa strain NC-5, sodium salt) is reported as 6.25 µg/mL, the MIC ([15]; Pseudomonas aeruginosa strain T, sodium salt) is reported as 12.5 µg/mL and the MIC [16] is reported as 100 µg/mL. The MIC [17] was 12.5 µg/mL, the MIC50 [18] was 21 µg/mL and the MIC50 [19] was 50 µg/mL. It also gave an MIC50 [20] of 115 µg/mL, an MIC50 [21] greater than 200 µg/mL and an MIC50 [22] of 5 µg/mL. For the same molecule, the MIC50 [23] was 73 µg/mL, the MIC50 [24] was 100 µg/mL and the MIC50 [25] was 14 µg/mL (≈ 28.8 µM). For the same molecule, the ED50 ([26]; P. aeruginosa strain NC-5, male ICR-SLC mice) was 60 mg/kg, the ED50 ([26]; P. aeruginosa strain T, male ICR-SLC mice) was 51 mg/kg and the ED50 ([27]; K. pneumoniae strain No. 1, male ICR-SLC mice) was 100 mg/kg. The ED50 ([27]; K. pneumoniae strain No. 6, male ICR-SLC mice) was 120 mg/kg, the ED50 ([27]; K. pneumoniae strain No. 20, male ICR-SLC mice) was greater than 150 mg/kg and the ED50 [28] was 3 mg/kg.
